Experimental data taken from patent US20250018047A1, “METHODS AND COMPOSITIONS FOR TARGETED PROTEIN DEGRADATION” (Ranok Therapeutics (Hangzhou) Co. Ltd., priority 2021, published 2025).
Structures can show the parent of a compound that is named as a salt.

Tests used:
[1] = tested on: A-427 human lung carcinoma; assay: CellTiter-Glo cancer cell line proliferation assay, A-427; assay type: cell-based; conditions: Homo sapiens, A-427, 24 hr, read-out: A427 at 24 hrs, IC50
Procedure, shortened: (§1)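 Cells plated at 4,000/well, grown 24 h at 37 °C/5% CO2, then exposed to compound concentration series (0.5% DMSO final) for 24 h. Viability read by CellTiter-Glo luminescence; IC50 values calculated.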

[2] = tested on: AsPC-1 human pancreatic adenocarcinoma; assay: CellTiter-Glo cancer cell line proliferation assay, AsPC-1; assay type: cell-based; conditions: Homo sapiens, ASPC1, 24 hr
Procedure, shortened: as §1

KRAS(G12D)/SOS1 = target: T1, KRAS(G12D)/SOS1 (Homo sapiens, UniProt P01116, G12D); assay: KRAS(G12D)/SOS1 homogeneous time-resolved fluorescence (HTRF) assay; assay type: binding; conditions: absence of GTP, 4° C. for 3 hr
T1 construct: purchased Cisbio 63ADK000CB16PEG
Experimental: The test compound was mixed and incubated with reaction components, incubated in a sealed plate at 4° C. for 3 hr and fluorescence was measured using a PerkinElmer Envision plate reader.

[3] = target: BA/F3-KRAS(G12D) murine pro-B cell line stably expressing KRAS(G12D) (Homo sapiens, UniProt P01116, G12D, cells depend on it); assay: CellTiter-Glo cancer cell line proliferation assay, BA/F3-KRAS(G12D); assay type: cell-based; conditions: 24 hr, read-out: BAF3 at 24 hrs, IC50
Procedure, shortened: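 BA/F3 cells expressing KRAS(G12D), 4,000/well in RPMI 1640 + 10% FCS, exposed 24 h at 37 °C to 3-fold dilutions (20 μM to 1.02 nM, 0.5% DMSO). Viability by CellTiter-Glo luminescence; IC50 calculated from the dose-response.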

Chain of BA/F3-KRAS(G12D) murine pro-B cell line stably expressing KRAS(G12D) (P01116 whole entry G12D): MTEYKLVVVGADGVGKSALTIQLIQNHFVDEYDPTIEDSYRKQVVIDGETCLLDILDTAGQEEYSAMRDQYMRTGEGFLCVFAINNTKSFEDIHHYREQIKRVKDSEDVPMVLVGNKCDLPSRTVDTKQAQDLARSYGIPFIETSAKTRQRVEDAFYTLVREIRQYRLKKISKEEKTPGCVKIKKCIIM
T1 sequence (P01116 1-188 isoform P01116-2 G12D): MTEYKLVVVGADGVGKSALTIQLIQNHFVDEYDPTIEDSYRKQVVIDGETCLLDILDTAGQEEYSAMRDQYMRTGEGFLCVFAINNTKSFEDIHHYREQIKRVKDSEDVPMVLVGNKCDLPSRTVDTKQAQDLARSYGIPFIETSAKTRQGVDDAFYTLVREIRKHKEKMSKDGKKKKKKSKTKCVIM

Compound	IC50 [1] [nM]	IC50 [2] [nM]	IC50 (KRAS(G12D)/SOS1) [nM]	GI50 [3] [nM]
CN1C[C@@H](N2CCC(C(=O)NCCOCCOc3ccc4c(c3)C(=O)N(C3CCC(=O)NC3=O)C4=O)CC2)C[C@H]1COc1nc(N2CC3CCC(C2)N3)c2cnc(-c3cccc4ccccc34)c(F)c2n1 (stereo partly drawn) [Compound 21, 1-((3S,5S)-5-(((4-(3,8-diazabicyclo[3.2.1]octan-3-yl)-8-fluoro-7-(naphthalen-1-yl)pyrido[4,3-d]pyrimidin-2-yl)oxy)methyl)-1-methylpyrrolidin-3-yl)-N-(2-(2-((2-(2,6-dioxopiperidin-3-yl)-1,3-dioxoisoindolin-5-yl)oxy)ethoxy)ethyl)piperidine-4-carboxamide formate]	> 1000	> 1000	100 to 1000	> 1000
Cc1ncsc1-c1ccc(CNC(=O)[C@@H]2C[C@@H](O)CN2C(=O)[C@@H](NC(=O)C2CCN([C@H]3C[C@@H](COc4nc(N5CC6CCC(C5)N6)c5cnc(-c6cccc7ccccc67)c(F)c5n4)N(C)C3)CC2)C(C)(C)C)cc1 [Compound 23, 1-((3S,5S)-5-(((4-(3,8-diazabicyclo[3.2.1]octan-3-yl)-8-fluoro-7-(naphthalen-1-yl)pyrido[4,3-d]pyrimidin-2-yl)oxy)methyl)-1-methylpyrrolidin-3-yl)-N—((S)-1-((2S,4R)-4-hydroxy-2-((4-(4-methylthiazol-5-yl)benzyl)carbamoyl)pyrrolidin-1-yl)-3,3-dimethyl-1-oxobutan-2-yl)piperidine-4-carboxamide formate]	> 1000	> 1000	> 1000	> 1000
CN1C[C@@H](N2CCC(C(=O)NCCOc3ccc4c(c3)C(=O)N(C3CCC(=O)NC3=O)C4=O)CC2)C[C@H]1COc1nc(N2CC3CCC(C2)N3)c2cnc(-c3cccc4ccccc34)c(F)c2n1 (stereo partly drawn) [Compound 22, 1-((3S,5S)-5-(((4-(3,8-diazabicyclo[3.2.1]octan-3-yl)-8-fluoro-7-(naphthalen-1-yl)pyrido[4,3-d]pyrimidin-2-yl)oxy)methyl)-1-methylpyrrolidin-3-yl)-N-(2-((2-(2,6-dioxopiperidin-3-yl)-1,3-dioxoisoindolin-5-yl)oxy)ethyl)piperidine-4-carboxamide formate]	> 1000	> 1000	> 1000	> 1000
